Here are results for one compound from US10337014B2, “Low molecular weight cyclic amine containing cationic lipids for oligonucleotide delivery” (SIRNA THERAPEUTICS, INC., priority 2010, dated 2019).

For series [1], the system named is mRNA transcript for the firefly (Photinus pyralis) luciferase gene. As to the kind of experiment: Mouse in vivo evaluation of efficacy (luciferase siRNA LNP, liver luminescence). The following applies: RDV (LNP) with Luc siRNA, tail vein, 0.1 to 0.5 mg/kg siRNA, imaged 48 hours post dose; compared with RDV containing Compound A. The protocol:
LNPs utilizing Compound 4, in the nominal compositions described immediately above, were evaluated for in vivo efficacy. The siRNA targets the mRNA transcript for the firefly (Photinus pyralis) luciferase gene (Accession #M15077). […] The in vivo luciferase model employs a transgenic mouse in which the firefly luciferase coding sequence is present in all cells. ROSA26-LoxP-Stop-LoxP-Luc (LSL-Luc) transgenic mice licensed from the Dana Farber Cancer Institute are induced to express the Luciferase gene by first removing the LSL sequence with a recombinant Ad-Cre virus (Vector Biolabs). Due to the organo-tropic nature of the virus, expression is limited to the liver when delivered via tail vein injection. Luciferase expression levels in liver are quantitated by measuring light output, using an IVIS imager (Xenogen) following administration of the luciferin substrate (Caliper Life Sciences). Pre-dose luminescence levels are measured prior to administration of the RDVs. Luciferin in PBS (15 mg/mL) is intraperitoneally (IP) injected in a volume of 150 μL. After a four minute incubation period mice are anesthetized with isoflurane and placed in the IVIS imager. The RDVs (containing siRNA) in PBS vehicle were tail vein injected n a volume of 0.2 mL. […] In vivo efficacy results are expressed as % inhibition of luminescence relative to pre-dose luminescence levels. […]

Series [2] relates to mRNA transcript for the ApoB gene. The series is described as follows: Rat in vivo evaluation of efficacy (ApoB siRNA LNP, liver ApoB mRNA by RT-PCR). The conditions noted are these: RDV (LNP) with ApoB siRNA, tail vein, Sprague-Dawley female rats, 24 hours after dosing; compared with RDV containing DLinKC2DMA (Compound 12). The protocol:
(§1) Six hours post dose, food is removed from the cages. Animal necropsy is performed 24 hours after LNP dosing. Rats are anesthetized under isoflurane for 5 minutes, then maintained under anesthesia by placing them in nose cones continuing the delivery of isoflurane until ex-sanguination is completed. Blood is collected from the vena cava using a 23 gauge butterfly venipuncture set and aliquoted to serum separator vacutainers for serum chemistry analysis. Punches of the excised caudate liver lobe are taken and placed in RNALater (Ambion) for mRNA analysis. Preserved liver tissue was homogenized and total RNA isolated using a Qiagen bead mill and the Qiagen miRNA-Easy RNA isolation kit following the manufacturer's instructions. Liver ApoB mRNA levels were determined by quantitative RT-PCR. Message was amplified from purified RNA utilizing a rat ApoB commercial probe set (Applied Biosystems Cat #RN01499054_m1). The PCR reaction was performed on an ABI 7500 instrument with a 96-well Fast Block. The ApoB mRNA level is normalized to the housekeeping PPIB (NM 011149) mRNA. PPIB mRNA levels were determined by RT-PCR using a commercial probe set (Applied Biosytems Cat. No. Mm00478295_m1). Results are expressed as a ratio of ApoB mRNA/PPIB mRNA. All mRNA data is expressed relative to the PBS control dose. […]

Series [3] is described as follows: Rat in vivo evaluation of toxicity (serum ALT and AST). The conditions noted are these: RDV (LNP) with ApoB siRNA, tail vein, Sprague-Dawley female rats, 24 hours after dosing; compared with RDV containing DLinKC2DMA (Compound 12). The protocol:
as §1

Series [4] can be described thus: Determination of cationic lipid levels in rat liver (LC/MS-MS). The class given is in vivo. The following applies: rats dosed with RDV, 0.5 mg/kg; compared with RDV containing DLinKC2DMA (Compound 12) or MC3 (Compound 13), also 0.5 mg/kg. The protocol:
Liver tissue was weighed into 20-ml vials and homogenized in 9 v/w of water using a GenoGrinder 2000 (OPS Diagnostics, 1600 strokes/min, 5 min). A 50 μL aliquot of each tissue homogenate was mixed with 300 μL of extraction/protein precipitating solvent (50/50 acetonitrile/methanol containing 500 nM internal standard) and the plate was centrifuged to sediment precipitated protein. A volume of 200 μL of each supernatant was then transferred to separate wells of a 96-well plate and 10 μl samples were directly analyzed by LC/MS-MS.
Standards were prepared by spiking known amounts of a methanol stock solution of compound into untreated rat liver homogenate (9 vol water/weight liver). Aliquots (50 μL) each standard/liver homogenate was mixed with 300 μL of extraction/protein precipitating solvent (50/50 acetonitrile/methanol containing 500 nM internal standard) and the plate was centrifuged to sediment precipitated protein. A volume of 200 μL of each supernatant was transferred to separate wells of a 96-well plate and 10 μl of each standard was directly analyzed by LC/MS-MS.
Absolute quantification versus standards prepared and extracted from liver homogenate was performed using an Aria LX-2 HPLC system (Thermo Scientific) coupled to an API 4000 triple quadrupole mass spectrometer (Applied Biosystems). […]

Take `CCCCC/C=C\C/C=C\CCCCCCCCO[C@@H]1CN(C)C[C@H]1OCCCCCCCC` (relative stereo) [Compound 4, trans-1-Methyl-3-[((9Z,12Z)-octadeca-9,12-dienyl)oxy]-4-octyloxy-pyrrolidine]: in series [1], the “in vivo efficacy (% inhibition of luminescence relative to pre-dose luminescence levels)” value is “Greater efficacy”. Also, the “in vivo efficacy (liver ApoB mRNA/PPIB mRNA relative to PBS control)” value in series [2] is “Modestly decreased efficacy”. Moreover, the “tolerability (increases in serum alanine amino transferase and aspartate amino transferase)” value in series [3] is given as “significantly improved tolerability”. Also, the “cationic lipid levels in rat liver” value in series [4] is reported as “much lower”.
